The values that follow come from patent US9615577B2, “Herbicidally active cyclic dione compounds, or derivatives therefor, substituted by a phenyl which has an alkynyl-containing substituent” (Syngenta Limited, priority 2012, dated 2017).

Structures are written as SMILES.

Assay type in all cases: in vivo
For assay [1], the system named is Brachiaria decumbens (BRADC). Nature of the assay: Biological Example 3 glasshouse assay for herbicidal activity, using various adjuvant systems, post-emergence. To be noted: 8 g/ha, 14 DAA, adjuvant system per compound. As for the experimental part: (§1) Post-emergence foliar spray application, 200 L/ha, usually one or two replicates for the weeds (depending on application rate), and two replicates for soybean.
(§2) Standard warm conditions (tropical), in glasshouse. Specifically, the glasshouse bay conditions are 24° C./18° C. day/night; 16/8 hours light/dark; 65% humidity.
(§3) The herbicidal application takes place at the following growth stages for plants which include inter alia one or more of the following plants (usually the herbicidal application takes place on at least the following six plants: DIGSA, ELEIN, SETFA, GLXMA Nikko, and GLXMA TMG133, and either BRADC or BRAPP):
Brachiaria decumbens (BRADC)— growth stage (GS) 12 or 13 (or GS 12)—or, if BRADC is not used, then Brachiaria platyphylla (BRAPP)—growth stage 12 or 13
(§4) Each test Compound is applied with one of the following adjuvant systems (all percentages are final concentrations in the aqueous spray mixture):
(§5) Adjuvant system 1: 0.5% v/v Adigor™ *, 1.0% v/v AMS (ammonium sulphate) and 12.5% v/v IPA (isopropyl alcohol).
Adjuvant system 2: 0.5% v/v Adigor™ * and 12.5% v/v IPA (isopropyl alcohol). […]
(§6) A visual assessment of the % herbicidal damage is made 7 and 14 Days After herbicide Application (DAA) (or, in a minority of cases, 7 and 15 DAA), and the results are recorded as % visual herbicidal damage where 0%=no damage to plants and 100%=plant totally killed. […]

Assay [2] deals with Digitaria sanguinalis (DIGSA). The description is as above. As to conditions: 8 g/ha, 0.5% v/v Adigor + 1.0% v/v AMS + 12.5% v/v IPA. The method, then:
as §1, §2, §3
Digitaria sanguinalis (DIGSA)—growth stage 12 or 13
as §4, §5
(§7) Adjuvant system 2: 0.5% v/v Adigor™ * and 12.5% v/v IPA (isopropyl alcohol).
(§8) Adjuvant system 3: 0.5% v/v Hexamoll™ DINCH **, 1.0% v/v AMS (ammonium sulphate) and 12.5% v/v IPA (isopropyl alcohol).
Seeds of the weed plants, typically including inter alia [either Brachiaria decumbens (BRADC) or Brachiaria platyphylla (BRAPP)], Digitaria sanguinalis (DIGSA), Eleusine indica (ELEIN), Setaria faberi (SETFA) are sown in seed trays (troughs) containing clay loam soil (pH 7.0, 2.2% organic matter, “Trough Mix A”); and soybean seed is sown in pots containing the same soil with 3 soybean seedlings per pot. The plants are sprayed with the test herbicide when they reach the growth stages mentioned above. […]
as §6

In assay [3] the test system is Setaria faberi (SETFA). The assay is described as above. As to conditions: 8 g/ha, 0.5% v/v Adigor + 1.0% v/v AMS + 12.5% v/v IPA. The method, then: as §1, §2, §3
Setaria faberi (SETFA)—growth stage 12 or 13
as §4, §5, §7, §8
(§9) Seeds of the weed plants, typically including inter alia [either Brachiaria decumbens (BRADC) or Brachiaria platyphylla (BRAPP)], Digitaria sanguinalis (DIGSA), Eleusine indica (ELEIN), Setaria faberi (SETFA) are sown in seed trays (troughs) containing clay loam soil (pH 7.0, 2.2% organic matter, “Trough Mix A”); and soybean seed is sown in pots containing the same soil with 3 soybean seedlings per pot. The plants are sprayed with the test herbicide when they reach the growth stages mentioned above.
(§10) The test herbicidal solutions are prepared by mixing the appropriate aliquots of the test substance(s) and the adjuvant system indicated above *** in deionised water to give the desired treatment concentration. […]
as §6

In assay [4] the test system is Echinochloa crus-galli (ECHCG). Described as above. As to conditions: 8 g/ha, 14 DAA, adjuvant system per compound. The method, then: as §1, §2, §3
Echinochloa crus-galli (ECHCG)—growth stage 12 or 13
as §4, §5, §7
Adjuvant system 3: 0.5% v/v Hexamoll™ DINCH **, 1.0% v/v AMS (ammonium sulphate) and 12.5% v/v IPA (isopropyl alcohol). […]
as §6

The test system of assay [5] is Abutilon theophasti Medik. (ABUTH). Nature of the assay: Test 1A glasshouse assay for herbicidal activity, pre-emergence. As to conditions: 312 h, 250 g/ha, evaluated after 13 days, read-out: percentage phytotoxicity ABUTH. The gist of the method: (§11)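 Seeds sown in standard soil were sprayed 1 day after sowing (pre-emergence) or after 8 days' growth (post-emergence) with the active ingredient in acetone/water (50:50) containing 0.5% Tween 20. Plants were kept in a glasshouse at 24/16 °C day/night, 14 h light, 65% humidity; phytotoxicity was scored visually after 13 days (0–100%).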

Assay [6] has as its system Alopecurus myosuroides (ALOMY). The assay is described as above. As to conditions: 312 h, 250 g/ha, evaluated after 13 days, read-out: percentage phytotoxicity ALOMY. The essentials:
as §11

Assay [7] deals with Amaranthus retroflexus (AMARE). Described as above. As to conditions: 312 h, 250 g/ha, evaluated after 13 days, read-out: percentage phytotoxicity AMARE. The essentials:
as §11

Assay [8] concerns Echinochloa crus-galli (ECHCG). The assay is described as above. As to conditions: 312 h, 250 g/ha, evaluated after 13 days, read-out: percentage phytotoxicity ECHCG. The gist of the method: as §11
Assay [9] has as its system Setaria faberi (SETFA). The description is as above. As to conditions: 312 h, 250 g/ha, evaluated after 13 days, read-out: percentage phytotoxicity SETFA. The gist of the method:
as §11

Assay [10] has as its system Abutilon theophasti Medik. (ABUTH). Nature of the assay: Test 1A glasshouse assay for herbicidal activity, post-emergence. To be noted: 312 h, 250 g/ha, evaluated after 13 days, read-out: percentage phytotoxicity ABUTH. The gist of the method: as §11
Assay [11] relates to Alopecurus myosuroides (ALOMY). Described as above. To be noted: 312 h, 250 g/ha, evaluated after 13 days, read-out: percentage phytotoxicity ALOMY. The gist of the method:
as §11

Assay [12] relates to Amaranthus retroflexus (AMARE). The assay is described as above. To be noted: 312 h, 250 g/ha, evaluated after 13 days, read-out: percentage phytotoxicity AMARE. The gist of the method:
as §11

Assay [13] has as its system Echinochloa crus-galli (ECHCG). The assay is described as above. As to conditions: 312 h, 250 g/ha, evaluated after 13 days, read-out: percentage phytotoxicity ECHCG. The gist of the method: as §11
Assay [14] relates to Setaria faberi (SETFA). Described as above. As to conditions: 312 h, 250 g/ha, evaluated after 13 days, read-out: percentage phytotoxicity SETFA. The essentials: as §11
Assay [15] deals with Alopecurus myosuroides (ALOMY). The experiment in a line: Biological Example 2 comparative herbicidal data, post-emergence glasshouse screen. To be noted: 312 h, read-out: Post-emergence herbicidal activities (percentage phytotoxicity) ALOMY. The gist of the method:
(§12)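 Plants grown 8 days in a glasshouse (24/16°C day/night, 14 h light, 65% humidity) were sprayed with compound in acetone/water (50:50) containing 0.5% Tween 20. They were kept under the same conditions and watered twice daily. Phytotoxicity was scored visually after 13 days (0 = no damage, 100 = total damage).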

The subject of assay [16] is Echinochloa crus-galli (ECHCG). The description is as above. As to conditions: 312 h, read-out: Post-emergence herbicidal activities (percentage phytotoxicity) ECHCG. The gist of the method:
as §12

The test system of assay [17] is Setaria faberi (SETFA). The description is as above. As to conditions: 312 h, read-out: Post-emergence herbicidal activities (percentage phytotoxicity) SETFA. The gist of the method:
as §12

A further assay deals with Eleusine indica (ELEIN). Nature of the assay: Biological Example 3 glasshouse assay for herbicidal activity, using various adjuvant systems, post-emergence. As to conditions: 8 g/ha, 15 DAA, 0.5% v/v Adigor + 1.0% v/v AMS + 12.5% v/v IPA. As for the experimental part:
as §1, §2, §3
Eleusine indica (ELEIN)—growth stage 12 or 13
as §4, §5, §7, §8, §9, §10, §6

Assay [18] deals with Amarantus retroflexus (AMARE). Nature of the assay: Biological Example 2 comparative herbicidal data, post-emergence glasshouse screen. As to conditions: Amaranthus retroflexus, read-out: Post-emergence herbicidal activities (percentage phytotoxicity) AMARE.
In assay [19] the test system is Abutilon theophasti Medik. (ABUTH). The assay is described as above. To be noted: read-out: Post-emergence herbicidal activities (percentage phytotoxicity) ABUTH.

Turning to `COc1cc(C#CCl)cc(Cl)c1C1C(=O)C2CCC(C2)C1=O` (stereo not drawn) [Compound A-25, 3-[2-Chloro-4-(2-chloroethynyl)-6-methoxy-phenyl]bicyclo[3.2.1]octane-2,4-dione], the “percentage control of Brachiaria decumbens (BRADC)” value in assay [1] stood at 15%. Besides, in assay [2] (14 DAA), the “percentage control of Digitaria sanguinalis (DIGSA)” value came to 60%. For the same molecule, the “percentage control of Setaria faberi (SETFA)” value with Setaria faberi (SETFA) [3] (14 DAA) was 40%. Besides, the “percentage control of Echinochloa crus-galli (ECHCG)” value in assay [4] was found to be 45%.
For the molecule `C#Cc1cc(Cl)c(C2C(=O)CC3(CCOCC3)CC2=O)c(OC)c1` [Compound B-1, 9-(2-Chloro-4-ethynyl-6-methoxy-phenyl)-3-oxaspiro[5.5]undecane-8,10-dione], the pest or weed control at 250 g/ha worked out at 0% in [5]; 90% in assay [6]; 20% in assay [7]; 100% in [8]; 80% with Setaria faberi (SETFA) [9]; 60% in assay [10]. Further, the pest or weed control at 250 g/ha was 100% in assay [11], 0% in assay [12], 100% in assay [13] and 100% in the assay with Setaria faberi (SETFA) [14]. Besides, the pest or weed control at 8 g/ha in [15] (8 g/ha application rate) came to 10%; in [16] (8 g/ha application rate), 20%; with Setaria faberi (SETFA) [17] (8 g/ha application rate) it was 30%; in assay [18] (8 g/ha application rate), 0%; in assay [19] (8 g/ha application rate), 0%. In addition, the pest or weed control at 30 g/ha in [15] (30 g/ha application rate) amounted to 70%; in [16] (30 g/ha application rate), 80%; in the assay with Setaria faberi (SETFA) [17] (30 g/ha application rate) it was 70%; in [18] (30 g/ha application rate), 0%; in assay [19] (30 g/ha application rate), 10%. The “percentage control of Digitaria sanguinalis (DIGSA)” value in [2] (15 DAA) is recorded as 85%. Further, the “percentage control of Eleusine indica (ELEIN)” value with Eleusine indica (ELEIN) is recorded as 20%. Also, in the assay on Setaria faberi (SETFA) [3] (15 DAA), the “percentage control of Setaria faberi (SETFA)” value is 50%.
